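GI50 marks 50% less growth. At the TGI there is no net growth.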
Experiments:
Test in all cases: DTP human tumour cell line panel, 384-well format; in the data active means GI50 below about 0.43 µM; inactive means the rest
M14 melanoma = test system: M14 melanoma
SK-MEL-28 melanoma = test system: SK-MEL-28 melanoma
HOP-62 NSCLC = test system: HOP-62 NSCLC
BT-549 breast = test system: BT-549 breast
MALME-3M melanoma = test system: MALME-3M melanoma
UACC-62 melanoma = test system: UACC-62 melanoma
SN12C renal = test system: SN12C renal
HCT-15 colon = test system: HCT-15 colon
NCI/ADR-RES ovarian = test system: NCI/ADR-RES ovarian
HCT-116 colon = test system: HCT-116 colon
EKVX NSCLC = test system: EKVX NSCLC
NCI-H322M lung = test system: NCI-H322M lung
SF-539 CNS = test system: SF-539 CNS
ACHN renal = test system: ACHN renal
NCI-H226 lung = test system: NCI-H226 lung
MCF7 breast = test system: MCF7 breast
OVCAR-5 ovarian = test system: OVCAR-5 ovarian
CCRF-CEM leukemia = test system: CCRF-CEM leukemia
U251 glioblastoma = test system: U251 glioblastoma
A498 renal = test system: A498 renal
UACC-257 melanoma = test system: UACC-257 melanoma
OVCAR-8 ovarian = test system: OVCAR-8 ovarian
SW-620 colon = test system: SW-620 colon
RPMI-8226 leukemia = test system: RPMI-8226 leukemia
T-47D breast = test system: T-47D breast
786-0 renal = test system: 786-0 renal
K-562 leukemia = test system: K-562 leukemia
NCI-H23 lung = test system: NCI-H23 lung

Cn1nnc2c(C(N)=O)ncn2c1=O
inactive: GI50 (M14 melanoma) > 100 µM | GI50 (SK-MEL-28 melanoma) > 100 µM | GI50 (HOP-62 NSCLC) > 100 µM | GI50 (BT-549 breast) > 100 µM | GI50 (MALME-3M melanoma) > 100 µM | GI50 (UACC-62 melanoma) > 100 µM | GI50 (SN12C renal) > 100 µM | GI50 (HCT-15 colon) > 100 µM | GI50 (NCI/ADR-RES ovarian) > 100 µM | GI50 (HCT-116 colon) > 100 µM | GI50 (EKVX NSCLC) > 100 µM | GI50 (NCI-H322M lung) > 100 µM | GI50 (SF-539 CNS) > 100 µM | GI50 (ACHN renal) > 100 µM | GI50 (NCI-H226 lung) > 100 µM | GI50 (MCF7 breast) > 100 µM | GI50 (OVCAR-5 ovarian) > 100 µM | GI50 (CCRF-CEM leukemia) > 100 µM | GI50 (U251 glioblastoma) > 100 µM | GI50 (A498 renal) > 100 µM | GI50 (UACC-257 melanoma) > 100 µM | GI50 (OVCAR-8 ovarian) > 100 µM | GI50 (SW-620 colon) > 100 µM | GI50 (RPMI-8226 leukemia) > 100 µM | GI50 (T-47D breast) > 100 µM | GI50 ([…]-0 renal) > 100 µM | GI50 (K-562 leukemia) > 100 µM | GI50 (NCI-H23 lung) > 100 µM
> 100 µM: TGI (M14 melanoma) | TGI (SK-MEL-28 melanoma) | TGI (HOP-62 NSCLC) | TGI (BT-549 breast) | TGI (MALME-3M melanoma) | TGI (UACC-62 melanoma) | TGI (SN12C renal) | TGI (HCT-15 colon) | TGI (NCI/ADR-RES ovarian) | TGI (HCT-116 colon) | TGI (EKVX NSCLC) | TGI (NCI-H322M lung) | TGI (SF-539 CNS) | TGI (ACHN renal) | TGI (NCI-H226 lung) | TGI (MCF7 breast) | TGI (OVCAR-5 ovarian) | TGI (CCRF-CEM leukemia) | TGI (U251 glioblastoma) | TGI (A498 renal) | TGI (UACC-257 melanoma) | TGI (OVCAR-8 ovarian) | TGI (SW-620 colon) | TGI (RPMI-8226 leukemia) | TGI (T-47D breast) | TGI (786-0 renal) | TGI (K-562 leukemia)

— PubChem BioAssay (NCI)
